Legend:
[1] = test system: CCl4-induced liver fibrosis in C57BL/6J mice; test: CCl4-induced liver fibrosis model; assay type: in vivo, mouse; details: 45 mg/kg/dose PO QD, day 28, vs CCl4 + captisol; P < 0.0001 and P = 0.004
Protocol: A preclinical mouse model for CCl4-induced liver fibrosis was performed at the Department of Metabolic Health Research, The Netherlands Organisation for Applied Scientific Research (TNO) (Leiden, The Netherlands). Fifty-two male C57BL/6J mice were matched on body weight prior to the study and divided into five groups (experimental study design, Supplementary Figure S1a). Starting at day 0, 10–12-week-old mice were intraperitoneally (i.p.) injected (three times a week) with mineral oil (group 1) or CCl4 (15% v/v in mineral oil, group 2–5) for a total of 28 days. At day 0, mice received subcutaneous treatment with compound 18a (15 mg/kg/dose, twice daily (BID), group 3), or corresponding vehicle control (23% HPBCD, twice daily (BID), groups 1 and 2)], or received daily gavage with either an ALK5/ALK4 kinase inhibitor [SM 16 (45 mg/kg/dose, PO, QD, group 5) or its corresponding vehicle control (β-cyclodextrin sulfobutyl ether sodium salt or captisol, PO, QD, group 4)]. Plasma samples were collected by a tail vein bleed at day 7. At day 28, mice were sacrificed using CO2 and additional plasma samples and liver lobes were collected. As a primary endpoint collagen surface area was determined on cross-sections of the lateral left lobe by picro sirius red (PSR) staining. As a secondary endpoint collagen content (hydroxyproline) of the left median lobe was analyzed using a chromogenic assay according to the manufacturer’s instructions (QuickZyme Biosciences, Leiden, The Netherlands).

[2] = test system: mouse CXCL12 plasma levels; test: Mouse CXCL12 plasma determination (Bio-Plex); assay type: in vivo; details: liver fibrosis model, day 28, 45 mg/kg/dose PO QD
Protocol: CXCL12 plasma levels were determined using Bio-Plex Pro Mouse Chemokine SDF-1a/CXCL12 (Bio-Rad) according to the manufacturer’s protocol. Prior to the assay mouse plasma samples were centrifuged for 15 min at 1000×g at 4 °C to remove any particulates. A four-fold dilution series of mouse CXCL12, blank samples and 1:5 diluted plasma samples were prepared. A 1:1 mixture of magnetic beads (50 µL/well) and sample (50 µL/well) was added to the 96-well assay plate, which was then sealed and incubated (30 min at RT) on a plate shaker at 850 rpm protected from light. After washing three times with wash buffer 25 µL/well detection antibody was added and the plate was again incubated as described above. The plate was again washed three times (100 µL/well wash buffer) followed by the addition of streptavidin-PE (50 µL/well). The plate was sealed and incubated (10 min at RT) at 850 rpm protected from light. Finally, the plate was again washed three times and the magnetic beads were resuspended in fresh assay buffer (152 µL/well). The plate was sealed and shaken for an additional 30 s before being analyzed with the Bioplex 200 System. Data were analyzed with the Bio-Plex Manager Software.

## Cc1cccc(-c2[nH]c(C34CCC(C(N)=O)(CC3)CC4)nc2-c2ccc3c(c2)OCO3)n1 [SM 16, reference compound]
[1]
  liver fibrosis: PSR-positive area and hydroxyproline content: significantly attenuated liver fibrosis
[2]
  plasma CXCL12 levels: no further increase of plasma CXCL12 was observed

From article PMC9106635, “Stimulation of the atypical chemokine receptor 3 (ACKR3) by a small-molecule agonist attenuates fibrosis in a preclinical liver but not lung injury model” (Cellular and Molecular Life Sciences: CMLS, 2022)
